Consider three compounds from patent publication US9980925B2, “Xanthohumol in antiarrythmic applications” (University of South Carolina, priority 2016, dated 2018).

Holding throughout (format): cell-based
Data set [1] concerns rat ventricular cardiomyocyte. The data set is described as follows: ROS production from DCF fluorescence in ventricular myocytes incubated with H2DCFDA. On the procedure: A Noran Odyssey XL rapid two-dimensional laser-scanning confocal microscope (Noran Instruments, Madison, Wis.; Zeiss Axiovert TV135) was used with a x63 water-immersion objective, λex=488 nm and λem>515 nm to measure kinetics and subcellular distribution of fluorescence signals according to known protocols. Ca^2+ was imaged after 20- to 30-minute incubation with fluo-4 AM (2 μM). ROS was measured by incubating cells with H2DCFDA (5 μM for 30 minutes), which is cleaved by esterases to form less permeant 2′,7′-dichlorodihydrofluorescein that is then oxidized by free radical compounds to fluorescent 2′,7′-dichlorofluorescein (DCF) as described previously. Fluorescence images of ROS were recorded at low fluorescence intensity and frame rate (about 1 Hz) and required considerable signal averaging (FIG. 1).
Measurements of ROS were also carried out using the oxygen-radical sensitive dye 2′,7′-dichlorofluorescein (DCF) (5 μM). The effect of the xanthohumol was compared with the antioxidant N-acetyl cysteine (10 mM).
ROS production was evaluated from the rate of increase in DCF fluorescence in ventricular myocytes incubated with H2DCFDA.

In data set [2] the test system is rat ventricular myocytes. Description: Global whole-cell Ca2+ transients in field-stimulated cells (Fluo-4 AM). Conditions: for increase in Ca2+-transient peaks following a 30-second train of high-frequency stimulation: 0.5 to 2 Hz. On the procedure:
(§1) Whole-cell Ca^2+ transients occurring spontaneously or evoked electrically by field stimulation or voltage-clamp depolarizations or by rapid application of caffeine (2.5 mM for 0.5 or 1 second) were measured fluorometrically after incubating the cells in fluo-4 AM (2 μM) for 30 minutes. The dye was excited by 460 nm light from a LED-based illuminator (Prismatix, Modiin (lite, Israel), and Ca^2+-dependent fluorescent light (>500 nm) was detected with a photomultiplier tube that was placed behind a moveable, adjustable diaphragm, which served to limit the area of detection to the voltage-clamped cell. The cellular fluorescence signals (ΔF/F0) were normalized by dividing the changes in whole-cell fluorescence (ΔF) with the baseline fluorescence (F0).
Effects of xanthohumol on cardiac Ca^2+ signaling were evaluated in enzymatically dispersed ventricular myocytes that were subjected to field stimulation or voltage-clamp depolarizations in the whole-cell, perforated patch configuration to activate Ca^2+ current (ICa) and SR Ca^2+ release.
(§2) The cells were incubated with fluo-4 AM for 30 minutes to allow fluorometric imaging of Ca^2+ sparks and measurements of whole-cell Ca^2+ transients. Rapid perfusion of caffeine was used to release, and SR Ca^2+ stores and assesses their size according to known methodology. Xanthohumol was tested in the range from 5 nM to 1 μM and was used routinely either with acute application of 50 nM drug or by incubation of cells in 10 nM xanthohumol-containing solutions for 30 minutes. All cells were first perfused with Tyrode's solution (137 mM NaCl, 10 mM HEPES, 10 mM glucose, 5.4 mM KCl, 2 mM CaCl, 1 mM MgCl) and thereafter were subjected to the following in the absence or presence of xanthohumol:
(§3) Each experimental condition was typically sustained for 2-8 minutes to achieve equilibration. To avoid cell damage due to continuous light exposure, recordings were generally performed for intervals of only 5-10 seconds, but repeated every minute. Cells challenged with isoproterenol or low K^+ typically developed more abundant spontaneous Ca^2+ sparks and interdispersed irregular whole-cell Ca^2+ transients, especially in the absence of xanthohumol.

The subject of data set [3] is rat ventricular myocytes. The data set is described as follows: SR Ca2+ content and refilling after caffeine-induced Ca2+ release. As for the experimental part: as §1, §2
The aim of this set of experiments was to examine the effect of the xanthohumol on the SR Ca^2+ content and its recirculation. FIG. 14 compares the magnitude of Ca^2+ transients in electrically stimulated cells paced at 0.5 Hz to Ca^2+ transient that was produced when one stimulus was replaced by a rapid application of 2.5 mM caffeine for 1 second. […] It was concluded that xanthohumol suppresses slightly the Ca^2+ content of the SR, but this effect was fully reversed by isoproterenol.
To probe the effect of xanthohumol on recirculation of SR Ca^2+ and its refilling following depletion of its content by caffeine, the rate of recovery of electrically triggered Ca^2+ transients back to control levels was quantified as a measure of refilling of the SR store. […].

Data set [4] deals with rat ventricular myocytes. The data set is described as follows: Ca2+ spark imaging (Fluo-4 epifluorescence). On the procedure: Ca^2+ sparks (Fluo-4, λex=488 nm) were also measured with the LEICA DMI6000 microscope in the epifluorescence mode but now operating at 60-100 frames/s (FIG. 3, FIG. 4 (panels A-C); FIG. 5, FIG. 6, and FIG. 7); the average baseline fluorescence intensity (F0) was calculated from several frames without indication of spontaneous Ca^2+ signals in the form of sparks or waves. Images were filtered by 2 pixel×2 pixel averaging. The amplitudes of the Ca^2+-dependent cellular fluorescence signals were quantified as ΔF/F0, where ΔF is the change in fluorescence measured within selected regions of interest. The time constant of decay of Ca^2+ transients (Tau) was estimated by approximation with a single exponential.
as §2, §3

Data set [5] addresses T1, L-type Ca^2+ current (ICa) (Rattus norvegicus, UniProt P22002).
T1 construct: enzymatically dispersed ventricular myocytes that were subjected to field stimulation or voltage-clamp depolarizations; endogenous in cells; host or cells: freshly isolated ventricular cardiomyocytes of male Sprague-Dawley rats
The data set is described as follows: Voltage-clamp recording of L-type Ca2+ current (perforated patch). On the procedure:
(§4) Cells were voltage-clamped in the whole-cell perforated patch configuration at a holding potential of −50 or −60 mV and depolarized to +10 mV to activate L-type Ca^2+ current (ICa) and Ca^2+-induced Ca^2+ release using a Dagan amplifier and pClamp software (Clampex 10.2). Borosilicate patch pipettes were prepared using a horizontal pipette puller (Model P-87; Sutter Instruments, Novato, Calif.). […] Rapid applications of 2.5 mM caffeine and pharmacological interventions were used to elucidate the action mechanism of xanthohumol. Most experiments were performed at 35° C. Voltage-clamp experiments testing dose response were performed at both 25° C. and 35° C.
The effects of xanthohumol on Ca^2+ signaling parameters was compared using concentrations ranging between 1 nM and 1 μM. The experiments were carried out under perforated patch conditions both at room temperature and 35° C. Ventricular myocytes incubated in fluo-4 AM were activated by 100-ms depolarizing pulses from −50 to 10 m versus at room temperature. Ca^2+ current was suppressed by xanthohumol when the concentrations of the drug exceeded 100 nM (FIG. 16, panel A). […] At room temperatures, xanthohumol also slowed the kinetics of relaxation of Ca^2+ transients, as it suppressed its peak, at concentrations exceeding 50 nM (FIG. 16, panels B and C; P<0.001). […] It was concluded that higher metabolic states of myocytes, induced by higher temperatures and adrenergic stimulation, reduce the inhibitory effects of xanthohumol on Ca^2+ transients.

For data set [6], the system named is rat ventricular myocytes. Description: Ca2+ transients in voltage-clamped cells (Fluo-4 AM). On the procedure:
as §4, §1
The effects of xanthohumol on Ca^2+ signaling parameters was compared using concentrations ranging between 1 nM and 1 μM. The experiments were carried out under perforated patch conditions both at room temperature and 35° C. Ventricular myocytes incubated in fluo-4 AM were activated by 100-ms depolarizing pulses from −50 to 10 m versus at room temperature. Ca^2+ current was suppressed by xanthohumol when the concentrations of the drug exceeded 100 nM (FIG. 16, panel A). […] At room temperatures, xanthohumol also slowed the kinetics of relaxation of Ca^2+ transients, as it suppressed its peak, at concentrations exceeding 50 nM (FIG. 16, panels B and C; P<0.001). […]

Where [7] appears, read: isoproterenol 100 nM, 0.75 Hz, 35° C.
The mark [8] stands for this setting: 50-100 nM, 35° C., field-stimulated.
The mark [9] stands for this setting: xanthohumol 50-300 nM co-applied with isoproterenol.

“Also recorded” adds a separate entry of the source. A value given as a limit tells only on which side of the number the result lay.

T1 sequence (P22002 whole entry, other chains not shown): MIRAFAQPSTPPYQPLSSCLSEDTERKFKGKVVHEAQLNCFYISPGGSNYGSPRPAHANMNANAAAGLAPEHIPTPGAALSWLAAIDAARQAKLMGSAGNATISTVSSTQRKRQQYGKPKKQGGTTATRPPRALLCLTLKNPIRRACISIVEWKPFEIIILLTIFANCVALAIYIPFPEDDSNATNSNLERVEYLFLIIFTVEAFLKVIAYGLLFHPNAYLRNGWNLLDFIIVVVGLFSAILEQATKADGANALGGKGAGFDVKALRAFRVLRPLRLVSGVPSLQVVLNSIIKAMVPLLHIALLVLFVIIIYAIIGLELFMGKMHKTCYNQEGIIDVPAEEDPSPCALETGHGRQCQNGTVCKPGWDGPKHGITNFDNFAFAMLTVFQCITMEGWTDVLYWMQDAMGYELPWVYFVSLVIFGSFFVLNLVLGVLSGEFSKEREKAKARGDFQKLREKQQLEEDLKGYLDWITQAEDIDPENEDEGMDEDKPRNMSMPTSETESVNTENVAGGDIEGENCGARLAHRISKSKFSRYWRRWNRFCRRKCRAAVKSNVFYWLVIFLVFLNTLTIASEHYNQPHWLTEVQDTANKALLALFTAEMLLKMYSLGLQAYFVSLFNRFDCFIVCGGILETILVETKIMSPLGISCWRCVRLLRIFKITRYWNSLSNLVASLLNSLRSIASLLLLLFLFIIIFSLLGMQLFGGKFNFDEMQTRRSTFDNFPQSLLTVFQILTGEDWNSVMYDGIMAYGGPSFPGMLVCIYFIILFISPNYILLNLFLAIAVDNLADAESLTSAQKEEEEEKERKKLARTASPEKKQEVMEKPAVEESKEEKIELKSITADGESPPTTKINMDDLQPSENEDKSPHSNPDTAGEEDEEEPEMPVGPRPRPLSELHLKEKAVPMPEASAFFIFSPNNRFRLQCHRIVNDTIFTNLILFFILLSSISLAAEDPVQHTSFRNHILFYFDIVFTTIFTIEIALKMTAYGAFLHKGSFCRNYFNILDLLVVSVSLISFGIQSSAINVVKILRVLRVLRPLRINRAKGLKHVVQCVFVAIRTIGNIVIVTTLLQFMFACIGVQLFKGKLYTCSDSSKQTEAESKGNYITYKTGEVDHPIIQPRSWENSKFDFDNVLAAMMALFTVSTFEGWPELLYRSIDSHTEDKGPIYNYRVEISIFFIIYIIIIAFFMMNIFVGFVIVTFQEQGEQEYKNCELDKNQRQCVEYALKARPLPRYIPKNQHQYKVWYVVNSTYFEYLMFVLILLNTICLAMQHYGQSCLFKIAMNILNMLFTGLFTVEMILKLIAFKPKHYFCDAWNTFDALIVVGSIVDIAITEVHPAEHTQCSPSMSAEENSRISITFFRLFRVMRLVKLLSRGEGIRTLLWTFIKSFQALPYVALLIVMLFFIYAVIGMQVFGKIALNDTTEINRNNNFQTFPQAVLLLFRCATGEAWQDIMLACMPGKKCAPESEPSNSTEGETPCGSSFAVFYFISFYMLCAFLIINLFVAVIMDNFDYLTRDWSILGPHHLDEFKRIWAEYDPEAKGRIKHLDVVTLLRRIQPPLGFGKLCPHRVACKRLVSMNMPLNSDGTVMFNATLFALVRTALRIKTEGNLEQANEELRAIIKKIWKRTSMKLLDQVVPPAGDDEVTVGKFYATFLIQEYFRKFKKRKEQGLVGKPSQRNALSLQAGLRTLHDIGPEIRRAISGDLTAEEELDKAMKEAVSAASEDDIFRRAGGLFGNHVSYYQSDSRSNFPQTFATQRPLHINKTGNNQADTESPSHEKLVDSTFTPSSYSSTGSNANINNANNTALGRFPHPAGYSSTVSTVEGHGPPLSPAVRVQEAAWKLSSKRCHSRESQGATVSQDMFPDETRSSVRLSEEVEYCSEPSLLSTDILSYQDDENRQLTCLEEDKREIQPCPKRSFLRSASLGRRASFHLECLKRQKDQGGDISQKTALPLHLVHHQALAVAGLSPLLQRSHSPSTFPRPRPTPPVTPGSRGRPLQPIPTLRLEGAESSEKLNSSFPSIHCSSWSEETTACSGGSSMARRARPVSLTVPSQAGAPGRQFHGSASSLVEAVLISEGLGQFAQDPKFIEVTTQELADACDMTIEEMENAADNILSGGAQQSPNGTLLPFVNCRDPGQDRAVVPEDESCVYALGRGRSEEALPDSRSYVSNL
T1 sequence (P54290 25-944 partner limits assumed, other chains not shown): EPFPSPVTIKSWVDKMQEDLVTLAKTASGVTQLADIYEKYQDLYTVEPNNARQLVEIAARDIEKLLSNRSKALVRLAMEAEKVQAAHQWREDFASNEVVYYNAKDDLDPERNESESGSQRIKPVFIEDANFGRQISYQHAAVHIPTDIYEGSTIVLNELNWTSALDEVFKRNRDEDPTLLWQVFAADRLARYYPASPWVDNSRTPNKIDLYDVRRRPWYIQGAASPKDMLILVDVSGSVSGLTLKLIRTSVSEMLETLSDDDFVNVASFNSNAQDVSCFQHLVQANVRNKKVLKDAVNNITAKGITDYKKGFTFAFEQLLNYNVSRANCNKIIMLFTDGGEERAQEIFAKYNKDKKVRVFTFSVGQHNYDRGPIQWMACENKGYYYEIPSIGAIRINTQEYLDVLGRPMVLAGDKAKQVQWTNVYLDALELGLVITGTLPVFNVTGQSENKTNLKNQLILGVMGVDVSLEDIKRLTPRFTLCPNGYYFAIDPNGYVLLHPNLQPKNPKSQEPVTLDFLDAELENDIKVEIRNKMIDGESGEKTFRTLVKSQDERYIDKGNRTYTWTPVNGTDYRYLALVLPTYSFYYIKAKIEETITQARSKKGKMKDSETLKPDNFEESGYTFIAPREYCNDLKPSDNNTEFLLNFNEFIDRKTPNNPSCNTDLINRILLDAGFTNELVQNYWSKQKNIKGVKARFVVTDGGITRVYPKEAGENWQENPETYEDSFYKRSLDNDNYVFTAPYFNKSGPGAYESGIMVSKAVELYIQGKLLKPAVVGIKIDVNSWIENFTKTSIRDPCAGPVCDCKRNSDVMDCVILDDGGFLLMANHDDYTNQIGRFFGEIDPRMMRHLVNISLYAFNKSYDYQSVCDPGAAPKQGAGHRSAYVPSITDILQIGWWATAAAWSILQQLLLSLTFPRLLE
T1 sequence (P54290 945-1091 partner limits assumed, other chains not shown): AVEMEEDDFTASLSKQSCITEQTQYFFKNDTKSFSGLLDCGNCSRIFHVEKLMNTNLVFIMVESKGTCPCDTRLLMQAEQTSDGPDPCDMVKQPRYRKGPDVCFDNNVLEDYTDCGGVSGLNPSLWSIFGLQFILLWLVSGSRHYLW

With `CC(=O)N[C@@H](CS)C(=O)O` [N-acetyl cysteine, reference compound], the “low K+-induced increase of the DCF signal” value in data set [1] (N-acetyl cysteine 10 mM, low K+) is “suppressed”. Besides, the “effect on DCF signal after washout” value in data set [1] (after N-acetyl cysteine 10 mM) was “washout rapidly reversed the DCF signal”.

In the case of `CC(C)NCC(O)c1ccc(O)c(O)c1` (stereo not drawn) [isoproterenol, reference compound], in data set [2] (setting [7]), the “enhancement of rate of relaxation of Ca2+ transients” value is on record as “about 30%” and the “increase in frequency of spontaneous events” value is 3- to 4 fold. Further, the “increase in amplitude of the Ca2+ transients” value in data set [2] (isoproterenol 100 nM, electrical stimulation 0.75 Hz, 35° C., P=0.0464) is 50%. Further, the “fraction of the caffeine-releasable Ca2+ pool released by electrical stimulation” value in data set [3] (isoproterenol 100 nM, 0.5 Hz, 35° C.) is reported as “enhanced”. The “increase of peak of the triggered Ca2+ transient” value in data set [3] (isoproterenol 100 nM, paced at 0.5 Hz) worked out at 74.12%.

As for `COc1cc(O)c(CC=C(C)C)c(O)c1C(=O)/C=C/c1ccc(O)cc1` [xanthohumol], the “effect on DCF signal after washout” value in data set [1] (after xanthohumol 50 nM) is recorded as “persisted even after washout”. The “low K+ solution-induced increase of the DCF signal” value in data set [1] (xanthohumol 50 nM, low K+ 5.4→1.5 mM) is on record as “effectively suppressed”. For the same compound, the “slope of ROS-dependent DCF fluorescence signal (baseline ROS production)” value in data set [1] (xanthohumol 50 nM, uncompensated and background-compensated signal) is “reduced the slope”. In addition, in data set [4] (50 nM), the “frequency of Ca2+ sparks evoked by withdrawal of extracellular K+” value is reported as “markedly decreased”. In data set [4] (acute 10 nM), the “time to reduction of spark frequency after application” value was not above 2 min. In addition, in data set [4] (acute 10 nM, control cells with high baseline spark frequency, 5.4 mM K+), the “spontaneous Ca2+ spark frequency” value is “consistently reduced”. The “spontaneously developed Ca2+ oscillations or sparks” value in data set [4] (incubated 30 minutes in 10 nM, 5.4 mM K+) was “scarce”. Further, the “frequency of sparks/Ca2+ oscillations on reduction of K+ versus non-incubated cells” value in data set [4] (incubated 30 minutes in 10 nM, K+-free solutions, p<0.005) is on record as “significantly lower”. The “time to suppression of aberrant cellular Ca2+ transients” value in data set [2] (30 nM, electrically stimulated 1 Hz, 25° C.) is reported as less than 10 s. In addition, in data set [2] (100 nM, 35° C.), the “peak ΔF/F0, F0, or decay time constant (Tau) of electrically triggered Ca2+ transients” value is reported as “without modifying” and the “spontaneously triggered beats induced by rapid electrical stimulation” value is reported as “suppressed significantly”. Further, in data set [2] (1.5 mM K+, xanthohumol 50 nM), the “frequency of spontaneously triggered Ca2+ oscillations” value is “markedly reduced”. In addition, the “concentrations over which Tau was significantly reduced” value in data set [2] (0.5 Hz, 35° C. (FIG. 12 C)) was “over 300 nM”. Further, the toxic concentrations entry in data set [2] (35° C., electrically stimulated cells) is reported as “about 1 mM”. Moreover, in data set [2] (50-100 nM xanthohumol, n=4), the “increase in Ca2+-transient peaks following a 30-second train of high-frequency stimulation” value is on record as 12.14%±2.662. The “normalized ΔF or F0” value in data set [2] (50-100 nM, 35° C., 0.5 Hz, statistically insignificant) is given as “slight increase”. In data set [2] (setting [8]), the “aberrant secondary Ca2+ release events” value is listed as “blocks” and the “amplitude of electrically stimulated cellular Ca2+ transients” value is reported as “without decreasing”. Further, in data set [2] (continuous recordings (FIG. 9)), the “time for effects of xanthohumol to start to develop” value is “less than 10 seconds”. For the same compound, in data set [2] (range of 10-300 nM, 35° C.), the Tau of relaxation result is “without much change”. Besides, in data set [2] (setting [9]), the isoproterenol-triggered spontaneous events result is “strong suppression” and the “various parameters of Ca2+ transients (ΔF/F0, F0, Tau)” value is reported as “without having a significant effect”. Besides, the “increase in Ca2+-transient peaks following a 30-second train of high-frequency stimulation” value in data set [2] (xanthohumol and isoproterenol (100 nM)) was 5.002%±0.6667. The “modulatory effect on the uptake kinetics (Tau) following Ca2+ release by caffeine” value in data set [3] (in presence of xanthohumol (50 nM)) is “completely suppressed”. Besides, the “fractional Ca2+ release (ΔFStim/ΔFCaff)” value in data set [3] (xanthohumol 50 nM, 0.5 Hz, 35° C.) is on record as “not influenced; also recorded: not significantly reduced”. In addition, the “rate of refilling of the SR” value in data set [3] (xanthohumol 50 nM, after caffeine depletion) is given as “significantly reduced”. Besides, in data set [3] (xanthohumol 50 nM, caffeine 2.5 mM 1 second, 0.5 Hz, 35° C.), the “ΔF/F signal of caffeine-induced Ca2+ release (total Ca2+ content of the SR)” value is given as “significantly reduced”. Besides, the “reduction of peak of the triggered Ca2+ transient” value in data set [3] (xanthohumol 50 nM, paced at 0.5 Hz) was 22.66%. Besides, in data set [3] (xanthohumol 50 nM, statistically insignificant), the “diastolic Ca2+ levels” value is “slight increase”. The “effect on ICa” value in data set [5] (10 nM, room temperature) was “little or no effect”. Further, the “Ca2+ current” value in data set [5] (100-300 nM, 35° C.) is reported as “significantly increased”. In addition, in data set [5] (room temperature), the “concentration above which Ca2+ current was suppressed” value is listed as “exceeded 100 nM”. Also, the “Ca2+ transients” value in data set [6] (10 nM, room temperature) is “significantly suppressed”. Also, the “concentrations above which significant effects on ΔF/F or rate of decay occurred” value in data set [6] (35° C.) is recorded as “exceeding 300 nM”. Also, in data set [6] (room temperature, P<0.001), the “concentrations above which relaxation of Ca2+ transients was slowed and peak suppressed” value was “exceeding 50 nM”.
